Experimental data as given in ChEMBL document CHEMBL4507265 (2021).

Columns and labels:
[1] = target: Calcium/calmodulin-dependent protein kinase type II subunit alpha (Homo sapiens) (UniProt Q9UQM7); conditions: Compound concentration 1000.0 nM
[2] = target: Serine/threonine-protein kinase SIK3 (Homo sapiens) (UniProt Q9Y2K2); conditions: Compound concentration 1000.0 nM
[3] = target: Tyrosine-protein kinase receptor Tie-1 (Homo sapiens) (UniProt P35590); conditions: Compound concentration 1000.0 nM
[4] = target: Ribosomal protein S6 kinase alpha-1 (Homo sapiens) (UniProt Q15418); conditions: Compound concentration 1000.0 nM
Chain of Ribosomal protein S6 kinase alpha-1 (Homo sapiens) (Q15418 whole entry): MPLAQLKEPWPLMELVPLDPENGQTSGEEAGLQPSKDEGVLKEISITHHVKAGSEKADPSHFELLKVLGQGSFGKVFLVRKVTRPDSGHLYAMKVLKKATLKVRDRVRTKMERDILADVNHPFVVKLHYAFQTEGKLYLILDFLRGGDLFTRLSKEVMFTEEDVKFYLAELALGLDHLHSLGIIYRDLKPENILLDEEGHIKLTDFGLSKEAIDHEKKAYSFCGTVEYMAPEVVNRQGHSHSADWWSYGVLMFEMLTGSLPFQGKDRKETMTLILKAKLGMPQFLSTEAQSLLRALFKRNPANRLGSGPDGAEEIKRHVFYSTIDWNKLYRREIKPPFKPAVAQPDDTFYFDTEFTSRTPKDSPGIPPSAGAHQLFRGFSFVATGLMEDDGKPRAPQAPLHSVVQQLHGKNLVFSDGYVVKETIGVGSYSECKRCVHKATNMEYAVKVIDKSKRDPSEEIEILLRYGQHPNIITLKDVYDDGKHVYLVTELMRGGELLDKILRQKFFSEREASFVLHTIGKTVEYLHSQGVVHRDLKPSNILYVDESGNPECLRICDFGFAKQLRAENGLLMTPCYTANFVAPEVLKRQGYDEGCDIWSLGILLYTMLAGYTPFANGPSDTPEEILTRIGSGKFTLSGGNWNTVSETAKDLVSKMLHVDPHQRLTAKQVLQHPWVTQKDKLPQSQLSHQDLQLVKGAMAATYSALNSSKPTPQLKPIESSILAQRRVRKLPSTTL

[5] = target: Ephrin type-A receptor 3 (Homo sapiens) (UniProt P29320); conditions: Compound concentration 1000.0 nM
[6] = system: Phosphatidylinositol 4,5-bisphosphate 3-kinase catalytic subunit alpha isoform (Homo sapiens), P42336 [E542K]; conditions: Compound concentration 1000.0 nM
[7] = target: RAF proto-oncogene serine/threonine-protein kinase (Homo sapiens) (UniProt P04049); conditions: Compound concentration 1000.0 nM
[8] = system: Tyrosine-protein kinase ABL1 (Homo sapiens), P00519 [F317I]; conditions: Compound concentration 1000.0 nM
Chain of Tyrosine-protein kinase ABL1 (Homo sapiens), P00519 [F317I] (P00519 whole entry F317I): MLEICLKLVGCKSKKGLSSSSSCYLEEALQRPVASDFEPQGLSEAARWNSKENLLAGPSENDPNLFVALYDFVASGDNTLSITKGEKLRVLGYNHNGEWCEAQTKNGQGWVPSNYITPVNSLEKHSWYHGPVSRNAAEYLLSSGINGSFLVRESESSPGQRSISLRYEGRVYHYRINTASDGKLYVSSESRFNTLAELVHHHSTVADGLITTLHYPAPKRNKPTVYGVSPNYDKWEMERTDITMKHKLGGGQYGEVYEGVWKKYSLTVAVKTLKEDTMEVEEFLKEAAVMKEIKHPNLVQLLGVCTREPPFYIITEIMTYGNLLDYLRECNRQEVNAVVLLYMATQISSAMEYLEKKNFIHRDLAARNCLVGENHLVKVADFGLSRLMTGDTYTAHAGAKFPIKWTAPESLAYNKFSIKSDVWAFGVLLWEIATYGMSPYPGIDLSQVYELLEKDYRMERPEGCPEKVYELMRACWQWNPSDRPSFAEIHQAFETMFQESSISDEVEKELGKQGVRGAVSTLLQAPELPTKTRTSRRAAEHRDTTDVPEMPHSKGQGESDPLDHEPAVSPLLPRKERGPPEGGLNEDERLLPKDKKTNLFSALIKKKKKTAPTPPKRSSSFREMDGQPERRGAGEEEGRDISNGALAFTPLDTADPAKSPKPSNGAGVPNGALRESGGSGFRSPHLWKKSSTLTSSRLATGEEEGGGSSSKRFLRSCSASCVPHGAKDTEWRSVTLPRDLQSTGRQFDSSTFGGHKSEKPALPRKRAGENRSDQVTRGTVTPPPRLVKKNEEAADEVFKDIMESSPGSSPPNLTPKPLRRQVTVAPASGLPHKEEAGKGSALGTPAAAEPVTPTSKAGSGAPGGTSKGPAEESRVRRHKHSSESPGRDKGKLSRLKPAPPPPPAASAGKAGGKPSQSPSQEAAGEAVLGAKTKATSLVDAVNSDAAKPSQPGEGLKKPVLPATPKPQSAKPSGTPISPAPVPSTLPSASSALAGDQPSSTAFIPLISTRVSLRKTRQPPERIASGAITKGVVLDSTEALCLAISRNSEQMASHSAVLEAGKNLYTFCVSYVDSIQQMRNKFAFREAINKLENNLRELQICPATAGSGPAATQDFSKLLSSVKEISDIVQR

[9] = system: Mast/stem cell growth factor receptor Kit (Homo sapiens), P10721 [V559D,T670I]; conditions: Compound concentration 1000.0 nM
[10] = target: Serine/threonine-protein kinase SIK1 (Homo sapiens) (UniProt P57059); conditions: Compound concentration 1000.0 nM
[11] = target: Serine/threonine-protein kinase ULK1 (Homo sapiens) (UniProt O75385); conditions: Compound concentration 1000.0 nM
[12] = target: Serine/threonine-protein kinase PLK2 (Homo sapiens) (UniProt Q9NYY3); conditions: Compound concentration 1000.0 nM
[13] = target: Mitogen-activated protein kinase kinase kinase 10 (Homo sapiens) (UniProt Q02779); conditions: Compound concentration 1000.0 nM
[14] = target: Dual specificity protein kinase CLK2 (Homo sapiens) (UniProt P49760); conditions: Compound concentration 1000.0 nM
[15] = target: Mitogen-activated protein kinase kinase kinase 1 (Homo sapiens) (UniProt Q13233); conditions: Compound concentration 1000.0 nM
Chain of Mitogen-activated protein kinase kinase kinase 1 (Homo sapiens) (Q13233 whole entry): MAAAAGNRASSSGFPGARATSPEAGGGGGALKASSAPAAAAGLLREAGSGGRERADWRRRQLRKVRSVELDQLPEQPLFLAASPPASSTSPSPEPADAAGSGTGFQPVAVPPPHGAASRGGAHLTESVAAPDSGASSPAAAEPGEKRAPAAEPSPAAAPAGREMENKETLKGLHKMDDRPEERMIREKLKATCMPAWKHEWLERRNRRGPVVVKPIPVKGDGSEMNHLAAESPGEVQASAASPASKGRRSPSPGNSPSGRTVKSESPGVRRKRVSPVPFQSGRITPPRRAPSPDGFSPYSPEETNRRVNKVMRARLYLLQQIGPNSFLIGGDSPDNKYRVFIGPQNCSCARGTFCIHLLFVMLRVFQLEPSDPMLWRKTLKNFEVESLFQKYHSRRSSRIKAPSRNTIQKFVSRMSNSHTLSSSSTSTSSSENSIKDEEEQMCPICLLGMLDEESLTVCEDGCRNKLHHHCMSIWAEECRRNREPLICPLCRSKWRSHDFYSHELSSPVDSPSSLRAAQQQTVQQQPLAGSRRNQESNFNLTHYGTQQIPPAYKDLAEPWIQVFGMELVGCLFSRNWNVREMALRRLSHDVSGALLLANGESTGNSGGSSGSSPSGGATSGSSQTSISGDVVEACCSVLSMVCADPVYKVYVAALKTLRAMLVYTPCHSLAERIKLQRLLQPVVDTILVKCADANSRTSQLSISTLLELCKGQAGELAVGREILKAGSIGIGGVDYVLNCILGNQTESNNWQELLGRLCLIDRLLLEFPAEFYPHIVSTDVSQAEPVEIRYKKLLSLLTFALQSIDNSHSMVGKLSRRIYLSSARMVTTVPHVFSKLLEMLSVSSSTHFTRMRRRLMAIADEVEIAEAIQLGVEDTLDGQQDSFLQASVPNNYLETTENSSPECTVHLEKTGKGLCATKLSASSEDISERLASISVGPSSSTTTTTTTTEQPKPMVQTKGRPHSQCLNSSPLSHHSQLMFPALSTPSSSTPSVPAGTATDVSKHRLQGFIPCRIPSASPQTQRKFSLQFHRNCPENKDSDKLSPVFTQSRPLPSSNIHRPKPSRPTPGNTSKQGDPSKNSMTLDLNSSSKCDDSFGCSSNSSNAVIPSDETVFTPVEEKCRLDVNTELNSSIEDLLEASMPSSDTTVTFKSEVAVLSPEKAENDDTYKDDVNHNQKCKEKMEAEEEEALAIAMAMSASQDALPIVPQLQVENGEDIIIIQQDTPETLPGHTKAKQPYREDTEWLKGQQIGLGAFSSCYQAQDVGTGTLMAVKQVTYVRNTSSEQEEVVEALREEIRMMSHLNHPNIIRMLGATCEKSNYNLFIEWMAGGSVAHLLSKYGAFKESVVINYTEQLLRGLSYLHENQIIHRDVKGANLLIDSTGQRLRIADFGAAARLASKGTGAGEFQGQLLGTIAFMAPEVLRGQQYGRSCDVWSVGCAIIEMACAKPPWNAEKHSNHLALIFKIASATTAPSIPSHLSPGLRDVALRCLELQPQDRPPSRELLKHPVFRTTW

[16] = target: Serine/threonine-protein kinase 16 (Homo sapiens) (UniProt O75716); conditions: Compound concentration 1000.0 nM
[17] = system: Hepatocyte growth factor receptor (Homo sapiens), P08581 [M1250T]; conditions: Compound concentration 1000.0 nM
[18] = species: Rattus norvegicus; conditions: Compound concentration 10.0 uM
[19] = target: Atypical kinase COQ8B, mitochondrial (Homo sapiens) (UniProt Q96D53); conditions: Compound concentration 1000.0 nM
[20] = target: Mitogen-activated protein kinase kinase kinase 7 (Homo sapiens) (UniProt O43318); conditions: Compound concentration 1000.0 nM
[21] = target: Platelet-derived growth factor receptor beta (Homo sapiens) (UniProt P09619); conditions: Compound concentration 1000.0 nM
[22] = target: Macrophage colony-stimulating factor 1 receptor (Homo sapiens) (UniProt P07333); conditions: Compound concentration 1000.0 nM
[23] = target: Serine/threonine-protein kinase MRCK gamma (Homo sapiens) (UniProt Q6DT37); conditions: Compound concentration 1000.0 nM
[24] = target: Phosphatidylinositol 4-kinase beta (Homo sapiens) (UniProt Q9UBF8); conditions: Compound concentration 1000.0 nM
[25] = system: ALK tyrosine kinase receptor (Homo sapiens), Q9UM73 [L1196M]; conditions: Compound concentration 1000.0 nM
[26] = system: Phosphatidylinositol 4,5-bisphosphate 3-kinase catalytic subunit alpha isoform (Homo sapiens), P42336 [Q546K]; conditions: Compound concentration 1000.0 nM
[27] = target: D(1B) dopamine receptor (Homo sapiens) (UniProt P21918); conditions: Compound concentration 10.0 uM
[28] = target: Beta-adrenergic receptor kinase 1 (Homo sapiens) (UniProt P25098); conditions: Compound concentration 1000.0 nM
[29] = target: Leucine-rich repeat serine/threonine-protein kinase 2 (Homo sapiens) (UniProt Q5S007); conditions: Compound concentration 1000.0 nM
[30] = target: Homeodomain-interacting protein kinase 2 (Homo sapiens) (UniProt Q9H2X6); conditions: Compound concentration 1000.0 nM
[31] = target: Cyclin-dependent kinase 8 (Homo sapiens) (UniProt P49336); conditions: Compound concentration 1000.0 nM
Chain of Cyclin-dependent kinase 8 (Homo sapiens) (P49336 whole entry): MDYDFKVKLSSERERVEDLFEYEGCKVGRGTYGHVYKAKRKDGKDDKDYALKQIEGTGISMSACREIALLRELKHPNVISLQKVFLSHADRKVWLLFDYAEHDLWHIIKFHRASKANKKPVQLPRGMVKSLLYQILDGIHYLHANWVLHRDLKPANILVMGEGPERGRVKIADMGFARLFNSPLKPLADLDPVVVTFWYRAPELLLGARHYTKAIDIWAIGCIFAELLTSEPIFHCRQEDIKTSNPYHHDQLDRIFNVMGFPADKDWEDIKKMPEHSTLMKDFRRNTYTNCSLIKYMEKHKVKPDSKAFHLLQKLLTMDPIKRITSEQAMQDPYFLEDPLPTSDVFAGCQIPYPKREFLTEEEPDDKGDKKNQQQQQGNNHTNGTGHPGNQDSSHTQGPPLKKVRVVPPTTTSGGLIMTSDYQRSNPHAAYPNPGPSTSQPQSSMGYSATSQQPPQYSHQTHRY

[32] = target: Ribosomal protein S6 kinase beta-1 (Homo sapiens) (UniProt P23443); conditions: Compound concentration 1000.0 nM
[33] = target: Mitogen-activated protein kinase kinase kinase kinase 1 (Homo sapiens) (UniProt Q92918); conditions: Compound concentration 1000.0 nM
[34] = system: Tyrosine-protein kinase ABL1 (Homo sapiens), P00519 [F317I]; conditions: Compound concentration 1000.0 nM; remark: listed apart in the source
[35] = system: Tyrosine-protein kinase ABL1 (Homo sapiens), P00519 [F317L]; conditions: Compound concentration 1000.0 nM
Chain of Tyrosine-protein kinase ABL1 (Homo sapiens), P00519 [F317L] (P00519 whole entry F317L): as the sequence (P00519 whole entry F317I) above, with I317L counted along it

[36] = target: Ephrin type-B receptor 1 (Homo sapiens) (UniProt P54762); conditions: Compound concentration 1000.0 nM
[37] = target: Myotonin-protein kinase (Homo sapiens) (UniProt Q09013); conditions: Compound concentration 1000.0 nM
[38] = target: Uncharacterized serine/threonine-protein kinase SBK3 (Homo sapiens) (UniProt P0C264); conditions: Compound concentration 1000.0 nM
Chain of Uncharacterized serine/threonine-protein kinase SBK3 (Homo sapiens) (P0C264 whole entry): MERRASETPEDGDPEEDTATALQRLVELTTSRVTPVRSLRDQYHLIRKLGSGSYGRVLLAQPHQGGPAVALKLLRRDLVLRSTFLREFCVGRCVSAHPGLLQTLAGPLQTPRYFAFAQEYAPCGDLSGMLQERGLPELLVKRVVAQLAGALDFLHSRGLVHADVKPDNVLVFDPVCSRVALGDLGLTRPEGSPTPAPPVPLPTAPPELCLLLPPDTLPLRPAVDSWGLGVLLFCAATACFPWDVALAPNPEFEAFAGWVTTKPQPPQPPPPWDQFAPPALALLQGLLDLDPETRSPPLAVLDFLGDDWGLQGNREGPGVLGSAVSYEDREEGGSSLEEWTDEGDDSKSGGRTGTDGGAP

[39] = target: Phosphatidylinositol 3-kinase catalytic subunit type 3 (Homo sapiens) (UniProt Q8NEB9); conditions: Compound concentration 1000.0 nM
[40] = target: Protein-tyrosine kinase 6 (Homo sapiens) (UniProt Q13882); conditions: Compound concentration 1000.0 nM
Chain of Protein-tyrosine kinase 6 (Homo sapiens) (Q13882 whole entry, looked up): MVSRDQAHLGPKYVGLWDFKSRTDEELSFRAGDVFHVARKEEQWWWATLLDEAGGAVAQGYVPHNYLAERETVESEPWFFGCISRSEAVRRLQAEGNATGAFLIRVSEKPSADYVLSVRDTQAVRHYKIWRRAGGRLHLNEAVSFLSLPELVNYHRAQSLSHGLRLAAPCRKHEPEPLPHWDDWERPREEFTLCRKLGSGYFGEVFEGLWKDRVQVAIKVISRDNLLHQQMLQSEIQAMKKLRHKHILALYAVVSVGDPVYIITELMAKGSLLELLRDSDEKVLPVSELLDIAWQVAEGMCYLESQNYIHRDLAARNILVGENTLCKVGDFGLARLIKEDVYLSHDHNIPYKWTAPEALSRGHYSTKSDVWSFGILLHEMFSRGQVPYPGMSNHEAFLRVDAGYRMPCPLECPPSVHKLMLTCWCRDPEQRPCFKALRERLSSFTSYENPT

[41] = target: Mitogen-activated protein kinase kinase kinase 11 (Homo sapiens) (UniProt Q16584); conditions: Compound concentration 1000.0 nM
[42] = target: Calcium-dependent protein kinase 1 (Plasmodium falciparum) (UniProt P62344); conditions: Compound concentration 1000.0 nM
[43] = target: Dual specificity mitogen-activated protein kinase kinase 3 (Homo sapiens) (UniProt P46734); conditions: Compound concentration 1000.0 nM
Chain of Dual specificity mitogen-activated protein kinase kinase 3 (Homo sapiens) (P46734 whole entry): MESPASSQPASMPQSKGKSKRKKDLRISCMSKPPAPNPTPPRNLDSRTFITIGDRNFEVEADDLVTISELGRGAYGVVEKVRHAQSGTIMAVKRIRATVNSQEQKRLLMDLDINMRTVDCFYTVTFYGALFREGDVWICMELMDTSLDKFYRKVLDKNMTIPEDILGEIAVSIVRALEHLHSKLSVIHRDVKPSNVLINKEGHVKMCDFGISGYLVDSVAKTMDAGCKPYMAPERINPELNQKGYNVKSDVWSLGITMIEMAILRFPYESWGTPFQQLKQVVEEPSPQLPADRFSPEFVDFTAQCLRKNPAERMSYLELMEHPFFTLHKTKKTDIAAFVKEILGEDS

[44] = system: Serine/threonine-protein kinase B-raf (Homo sapiens), P15056 [V600E]; conditions: Compound concentration 1000.0 nM
[45] = target: Mitogen-activated protein kinase kinase kinase 5 (Homo sapiens) (UniProt Q99683); conditions: Compound concentration 1000.0 nM

NS(=O)(=O)c1cc(NC(=O)C2(c3ccccc3Cl)CC2)ccc1Oc1cccc(Cl)c1 [BAY-207]
active: inhibition [18] 87.5%
inactive: residual activity [1] 97% | residual activity [2] 87% | residual activity [3] 85% | residual activity [4] 100% | residual activity [5] 100% | residual activity [6] 80% | residual activity [7] 81% | residual activity [8] 96% | residual activity [9] 85% | residual activity [10] 71% | residual activity [11] 89% | residual activity [12] 84% | residual activity [13] 100% | residual activity [14] 97% | residual activity [15] 100% | residual activity [16] 100% | residual activity [17] 68% | residual activity [19] 63% | residual activity [20] 98% | residual activity [21] 90% | residual activity [22] 100% | residual activity [23] 82% | residual activity [24] 75% | residual activity [25] 85% | residual activity [26] 84% | inhibition [27] 20.8% | residual activity [28] 100% | residual activity [29] 89% | residual activity [30] 88% | residual activity [31] 91% | residual activity [32] 81% | residual activity [33] 66% | residual activity [34] 90% | residual activity [35] 88% | residual activity [36] 78% | residual activity [37] 79% | residual activity [38] 74% | residual activity [39] 89% | residual activity [40] 99% | residual activity [41] 79% | residual activity [42] 89% | residual activity [43] 84% | residual activity [44] 74% | residual activity [45] 88%

NS(=O)(=O)c1cc(NC(=O)Cc2ccccc2)ccc1Oc1cccc(Cl)c1 [BAY-1797]
inactive: residual activity [1] 96% | residual activity [2] 87% | residual activity [3] 100% | residual activity [4] 75% | residual activity [5] 78% | residual activity [6] 87% | residual activity [7] 100% | residual activity [8] 51% | residual activity [9] 83% | residual activity [10] 93% | residual activity [11] 88% | residual activity [12] 73% | residual activity [13] 98% | residual activity [14] 91% | residual activity [15] 66% | residual activity [16] 95% | residual activity [17] 99% | inhibition [18] 5.06% | residual activity [19] 100% | residual activity [20] 75% | residual activity [21] 76% | residual activity [22] 51% | residual activity [23] 100% | residual activity [24] 55% | residual activity [25] 62% | residual activity [26] 92% | inhibition [27] 27.7% | residual activity [28] 97% | residual activity [29] 72% | residual activity [30] 62% | residual activity [31] 68% | residual activity [32] 69% | residual activity [33] 91% | residual activity [34] 72% | residual activity [35] 57% | residual activity [36] 93% | residual activity [37] 100% | residual activity [38] 100% | residual activity [39] 100% | residual activity [40] 96% | residual activity [41] 78% | residual activity [42] 91% | residual activity [43] 83% | residual activity [44] 89% | residual activity [45] 100%
